From paper PMC7377361, “Pressurized DNA state inside herpes capsids—A novel antiviral target” (PLoS Pathogens, 2020)
Where no end group is shown, it is not given here.

Columns and labels:
free dsDNA = experiment: SAXS of free (bulk) DNA condensed by added compound; details: free dsDNA in TM-buffer, N/P ratio 1.5, 15, 23 and 37°C
Text: To determine if our DNA condensing compounds target pressurized intracapsid DNA in HSV-1 virions, we developed a three-step SAXS assay. In the first step, we confirmed the ability of compounds DAB-Am-4, bPEI 600, and Arg^5+ to condense the dsDNA in solution. We measured DNA-DNA spacing (ds) in bulk DNA solution in TM-buffer (i.e. free DNA without the capsid), where DNA is condensed by the added compound. This bulk DNA ds-measurement allows for quick prescreening with an in-house SAXS to determine if compounds are capable of binding to dsDNA and reducing DNA-DNA spacing below the physiologic ds-value for DNA packaged in a viral capsid (ds* = 31Å for HSV-1). […] The Bragg spacing, dBr, and the actual distance between helices, ds, are related by ds = 2dBr/sqrt(3) (see details in Materials and Methods). […] Compound concentrations were scaled proportionally with DNA concentration in the sample to correspond to the N/P ratio of 1.5, where N provides the number of positively charged amine groups on the polyamine compound, and P provides the number of negatively charged phosphate groups on the DNA. An N/P ratio of ~1–1.5 was previously shown to be sufficient for DNA condensation with polycationic amines.
For bulk DNA measurements with in-house SAXS, concentrated polycation solutions were added to 1 mg/mL free DNA in small increments of concentration. […]

NPC = experiment: Nuclear import assay (GST-NLS-EGFP) in isolated rat liver nuclei; format: biochemical; details: cytosol and ATP regeneration system, 37 °C
Experimental: This was verified with a fluorescently labeled nuclear localization signal (NLS), added to purified rat liver nuclei incubated with cytosolic extracts (as a source of soluble import factors) supplemented with an ATP regeneration system, see Supporting Materials for experimental description and S4A Fig. These controls were also reproduced with a digitonin-permeabilized cell assay, which accurately recapitulates capsid-nucleus binding and nuclear import in living cells; see Supporting Materials and data shown in S4B Fig. In agreement with observations in the isolated nuclei system (Fig 3B), we also confirmed via a digitonin-permeabilized cell assay that none of the three compounds interfered with capsid-NPC binding in cells. Attachment of GFP-capsids to nuclei was visualized with SR-SIM (S4C Fig). The addition of WGA prevented capsid binding, showing capsid-NPC binding specificity (S4C Fig).
Rat liver cell nuclei were incubated with GST-NLS-EGFP at 37 °C for 40 min in CBB buffer containing: (i) rat liver cell cytosol, (ii) 1 mg/mL BSA, and (iii) ATP regeneration system. The complete binding mixture was loaded onto coverslips and processed for fluorescence imaging as described above. When indicated, nuclei were preincubated with the polyvalent cationic agents at the concentrations described above for 2 h before performing import assays. […]

Compound | DNA-DNA interaxial spacing ds (free dsDNA) | nuclear import of GST-NLS-GFP protein (NPC)
RRRRR [Arg^5+] | below 31 Å | not blocked
NCCCN(CCCN)CCCCN(CCCN)CCCN [DAB-Am-4] | below 31 Å | not blocked
